Reference: patent publication US20230346831A1, “METHODS FOR TREATING […] USING LOW DOSE CARBON MONOXIDE” (priority 2020, published 2023)

Key:
[1] = test system: non-malignant BJ fibroblasts; assay: in vitro transwell migration assay; assay type: cell-based; conditions: 250 ppm CO
Description: Migration of different cancer cells under control air or 250 ppm CO treatment with or without supplement of 30 µM hemin was determined using in vitro transwell migration chamber with a serum gradient. Indicated cell lines were seeded into the transwell inserts. 16 hours later, cells on the top of the upper chambers were removed, and cells on the bottom surface of the transwell inserts were fixed, stained with crystal violet, and counted from eight randomly picked fields in three independent experiments. Error bars represent SEM. *: P < 0.05, two-sided t-test. Scale bar, 100 µm. […] Cells were seeded in the upper chamber of 8-µm porous polycarbonate membranes with DMEM containing 0% or 1% FBS, 0.2 mM L-glutamine, 1% penicillin/streptomycin. The lower chambers were filled with DMEM containing 10% or 20% FBS, 0.2 mM L-glutamine, and 1% penicillin/streptomycin (please see Table 1).
6.5 mm Transwell with 8.0 µm Pore Polycarbonate Membrane Insert (Corning, NY, Cat. No. 3422) was used for the cell migration assay (FIG. 1J). After 16 hours of incubation, cells migrated to the opposite side of the upper chambers were fixed with 4% paraformaldehyde, stained with 0.2% crystal violet for 30 min and counted in five fields under × 20 magnification. In parallel, cells were seeded on 24-well plates for proliferation assay. […] The optical density was measured at 595 nm (OD595). […]

[2] = test system: FLVCR1; assay: expression of heme exporter; assay type: cell-based, human; conditions: MCF7/TGL and MDA-MB-231/TGL cells; with or without 250 ppm CO
Source text: To investigate how CO reduces heme levels, whether CO decreased the transportation of heme into the cytosol was examined. […] Furthermore, heme oxygenases (HO-1, HO-2, and HO-3) cleave heme into 3 products: CO, ferrous ions (Fe2+), and biliverdin. […] So, whether there was an increase of HO-1 expression by low-dose CO treatment that could contribute to heme degradation was examined. […] Likewise, changes in protein levels of Bach 1 (a physiological repressor of HO-1 and a pro-metastatic transcription factor, whose degradation is reported to be mediated by heme in Nrf2-mutated lung cancer) was not detected (FIG. 4E). […] Taken together, CO decreased heme importers to lower intracellular heme levels, which inhibited cancer cell migration.

[3] = test system: HRG1; assay: quantitative real-time reverse transcription PCR; assay type: cell-based, human; conditions: MCF7/TGL and MDA-MB-231/TGL cells; 250 ppm CO
Description: (§1) mRNA was isolated from cells (MCF7/TGL and MDA-MB-231/TGL) grown on 6-cm dishes using RNeasy mini kit (Qiagen, Hilden, Germany) containing gDNA Eliminator spin columns. cDNA was generated using the SuperScript III First-strand synthesis system with random hexamers (Invitrogen, Carlsbad, CA), and power SYBR green (Invitrogen, Carlsbad, CA)-based quantitative real-time PCR was performed using primer specific for HRG1 (human, forward: 5′- […] -3′ (SEQ ID NO: 1), reverse: 5′- […] -3′ (SEQ ID NO: 2)) or HCP1 (human forward: 5′- […] -3′ (SEQ ID NO: 3), reverse: 5′-[…] -3′ (SEQ ID NO: 4)), CYP1B1 (human, forward: 5′TGAGTGCCGTGTGTTTCGG -3′ (SEQ ID NO: 5), reverse: 5′-[…] -3′ (SEQ ID NO: 6)), SP1 (human, forward: 5′-GTGGCCGCTACCTTCACTG -3′ (SEQ ID NO: 7), reverse: 5′-GCCCCACTCCTACTTGGTC -3′ (SEQ ID NO: 8)) with the comparative CT method (ΔΔCT; ABI).
(§2) To investigate how CO reduces heme levels, whether CO decreased the transportation of heme into the cytosol was examined. […] Furthermore, heme oxygenases (HO-1, HO-2, and HO-3) cleave heme into 3 products: CO, ferrous ions (Fe2+), and biliverdin. […] Likewise, changes in protein levels of Bach 1 (a physiological repressor of HO-1 and a pro-metastatic transcription factor, whose degradation is reported to be mediated by heme in Nrf2-mutated lung cancer) was not detected (FIG. 4E). […]

[4] = test system: HCP1; assay: quantitative real-time reverse transcription PCR; assay type: cell-based, human; conditions: MCF7/TGL and MDA-MB-231/TGL cells; 250 ppm CO
Description: as §1, §2

[5] = test system: oxygen consumption / mitochondrial respiration; assay: Seahorse XF Cell Mito Stress Test; assay type: cell-based, human
Source text: In particular, MDA-MB-231/TGL and MCF7/TGL/PQ cells treated with carbon monoxide met their energetic needs at the same rate as untreated control cells. […] In particular, MDA-MB-231/TGL and MCF7/TGL/PQ cells treated with carbon monoxide stimulated their mitochondrial respiratory chains at the same rate as untreated control cells.
The heme group confers functionality to multiple proteins, which can include oxygen carrying, oxygen reduction, electron transfer, and other processes. To determine whether the decrease of heme levels impacts levels of oxygen-utilizing hemoproteins and therefore reduces oxygen consumption, oxygen consumption rates (OCR) was measured. However, lower OCR after 16 hours in 250 ppm CO was not detected using Seahorse XF Cell Mito Stress Tests in MCF7 and MDA-MB-231 (data not shown).

[6] = test system: CYP1B1; assay: quantitative real-time reverse transcription PCR; assay type: cell-based, human; conditions: MCF7 and MDA-MB-231 cells; 250 ppm CO
Description: as §1
(§3) Heme is known to stimulate synthesis of many hemoproteins. Accordingly, hemoproteins whose expression was differentially regulated by low-dose CO in MCF7 and MDA-MB-231 cell lines were screened. CYP1B1, a heme-regulated protein, was identified as a top candidate in the list because of its following properties. First, CYP1B1 has been reported to induce the expression of SP1 transcription factor, and Sp1 interacts with Myc for synergistic transcriptional regulation for Myc target genes. […]

[7] = test system: SP1; assay: quantitative real-time reverse transcription PCR; assay type: cell-based, human; conditions: MCF7 and MDA-MB-231 cells; 250 ppm CO
Description: as §1, §3

[8] = MDA-MB-231 and MCF7 cells, low dose carbon monoxide

[C-]#[O+] [CO, Carbon monoxide]
migration [1]: only slightly reduced | FLVCR1 (heme exporter) expression [2]: no significant/consistent changes | HRG1 mRNA expression [3]: reduced | HCP1 mRNA expression [4]: reduced | lower oxygen consumption rates (OCR) ([5]; MCF7 and MDA-MB-231, after 16 hours in 250 ppm CO, data not shown): not detected | mitochondrial spare respiratory capacity ([5]; MDA-MB-231 and MCF7 cells, carbon monoxide treatment): improved | mitochondrial ATP production [5, 8]: did not affect | stress-induced mitochondrial maximum respiration [5, 8]: did not affect | CYP1B1 mRNA levels [6]: significantly reduced | SP1 mRNA levels [7]: significantly reduced
